Key:
[1] = tested on: MCF-7; assay: MTS cell proliferation assay, MCF-7; type: cell-based, human; conditions: Homo sapiens, MCF7, 72 h, read-out: IC50 MCF-7 (Table 4)
Summary of the method: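 MCF-7 human breast cancer cells were exposed to test compounds at a range of concentrations, then proliferation was measured with the MTS reagent from Promega's CellTiter 96 AQueous Non-Radioactive Cell Proliferation Assay kit. After 1 hr at 37° C., OD at 550 nm was read on a 96-well iMark Microplate Absorbance Reader, with quadruplicate wells per concentration.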

[2] = tested on: MDA-MB-231; assay: MTS cell proliferation assay, MDA-MB-231; type: cell-based, human; conditions: Homo sapiens, MDA-MB-231, 72 h, read-out: IC50 MDA-MB-231 (Table 4)
Summary of the method: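 Cells are exposed to DMSO or STAT3 inhibitors at 0.01-100 μM for 72 h, or at 1, 5 and 10 μM. Proliferation is read by MTS absorbance at 550 or 560 nm after 1 h at 37 °C. Each concentration is run in quadruplicate wells.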

[3] = tested on: MDA-MB-231 cells; assay: Apoptosis assay (annexin V, flow cytometry); type: cell-based, human; conditions: dose-dependent; Example 3 numbering
Method: Cell Cycle Assay and Apoptosis Assay: Cell cycle and apoptosis kits (#MCH100106 and #MCH100105, Millipore, Mass.) were used. […] 24 and 48 h after drug treatment, both adherent and floating cells were collected, washed once with PBS and fixed in cold ethanol for at least 4 h before cell cycle analysis. The fixed cells were then washed twice with PBS and resuspended in 200 μL cell cycle detection reagent, incubated for 30 minutes in dark at room temperature. Cell cycle distribution was measured by the Muse Cell Analyzer with Muse™ Cell Cycle. Similarly, MDA-MB-231 cells with the same treatments were prepared for apoptosis assay. After washing with PBS, resuspended cells were incubated with 100 μL PBS containing 1% BSA and 100 μL Annexin V and dead cell detection reagent in dark for 20 minutes at room temperature. Apoptosis was measured immediately using the Muse Cell Analyzer with the Muse™ Apoptosis Program.

[4] = tested on: STAT3 and pSTAT3 in MDA-MB-231 xenograft tumors; assay: IHC and Western blot of xenograft tumors; type: in vivo, mice; conditions: oral gavage 14 days
From the text: Immunohistochemistry (IHC): Paraffin blocks of the collected tissue were sectioned into 4 μm thickness and stained with H&E as a reference. All slides were subjected to phospho-STAT3 (Y705) IHC with ABC staining method. Rabbit or mouse IgG ABC kit was purchased from Vector Laboratories (Burlingame, Calif., USA) and ABC staining reagents were purchased from Sigma Aldrich (Louis, Mo., USA). PBS was used instead of primary antibody as a negative control.

O=C(Nc1ccc([N+](=O)[O-])cc1Cl)c1cc(Cl)ccc1O [niclosamide, reference compound]
IC50 [1]: 1060 nM | IC50 [2]: 790 nM | apoptosis, annexin V (Example 3) [3]: activated apoptosis | STAT3 and pSTAT3 (Y705 and S727) in tumor lysates, Western blot [4]: decreased

— patent US9884863B2, “STAT3 inhibitor” (Board of Regents, The University of Texas System, priority 2013, dated 2018)
